Measured values: patent US7704978B2, “Methods for treating neuropsychiatric disorders” (The General Hospital Corporation, priority 1998, dated 2010)
Marks after values point to notes of the source that are not given here.

How the values were obtained:
Schizophrenia Patients [1] = details: human, in vivo; for AIMS (dyskinesia), score after treatment / Barnes Scale (akathesia), score after treatment / EPS (Simpson-Angus Scale), score after treatment: 6 weeks
Source text: (§1) This study employed 37 patients who were diagnosed as having schizophrenia. All patients fulfilled the DSM-IV diagnosis of schizophrenia (APA, 1994, Diagnostic and Statistical Manual of Mental Disorders, Fourth Edition, Washington, D.C.). All of the patients also fulfilled the criteria of primary deficit syndrome, with a SANS score of more than 40 (Kirkpatrick et al., 1989, Psychiatry Research 30:119-123; Andreasen, 1983, Scales for the Assessment of Negative Symptoms (SANS), Iowa City, Iowa). All of the patients were poorly responsive to treatment by other antipsychotic drugs, and had been kept on a stable dose of an antipsychotic drug for at least 3 months prior to enrollment in this study.
(§2) Several scales were used to assess the severity of the disorder in each patient. At the beginning of the study (i.e., the baseline), the PANSS, SANS, and […] were used. Each scale also was completed at the end of each 2-week period throughout the study. These assessments were performed by a psychiatrist who was blind to the treatment assignment. The Wisconsin Card Sort Test was used to provide a cognitive rating of the patients; in general, schizophrenic patients perform poorly on this test. The Wisconsin Card Sort Test was administered only at the initiation of the study and at the end of the 6-week study. To measure side effects, the Simpson-Angus Scale was used to measure extrapyramidal symptoms (EPS; Simpson et al., 1970, Acta Psychiatrica Scandinavia Suppl. 212:11-19). The Abnormal Involuntary Movement Scale (AIMS) was used to measure dyskinesia (Simpson et al., 1970, Acta Psychiatrica Scandinavia Suppl. 212:11-19). The Barnes Scale was used to measure akathesia (Barnes, 1989, Brit. J. Psychiatry 154:672-676). The side effects of D-serine, D-alanine, and N-methylglycine treatments were assessed biweekly according to the UKU side effects rating scale (Scandinavian Society of Psychopharmacology Committee of Clinical Investigation: The UKU side effect rating scale: scale for the registration of unwanted effects of psychotropics. Acta. Psychiatr. Scand. 1987; Suppl. 334:81-94).
(§3) Using double-blind conditions, the patients were randomly assigned to receive placebo (fruit juice), D-serine (30 mg/kg/day), D-alanine (60-100 mg/kg/day), or N-methylglycine (30 mg/kg/day) once a day by mouth for a period of 6 weeks. As indicated by the results shown in Table 1, treatment with D-serine, D-alanine, or N-methylglycine improved the schizophrenic symptoms and cognitive deficit of the patients. […] These reductions in the negative and positive symptoms represented clinically significant improvement.

Schizophrenia Patients [2] = assay: Double-blind, placebo-controlled 6-week treatment of schizophrenia patients: clinical symptoms and cognition (SANS, PANSS, CGI, Wisconsin Card Sort Test); type: in vivo, human; details: for cognition, PANSS-cognitive subscale and Wisconsin Card Sort Test: 6 weeks of treatment; for WCST (Wisconsin Card Sort Test), change: initiation versus end of the 6-week study; for WCST (Wisconsin Card Sort Test), change / Cognitive symptoms (PANSS-cognitive subscale), change / Positive Symptoms (PANSS-positive subscale), change / reduction of the negative symptoms (on the SANS scale) / reduction of the positive symptoms (on the PANSS-positive subscale) / CGI, score after treatment: D-serine 30, D-alanine 60-100, N-methylglycine 30 mg/kg/day; for Negative Symptoms (SANS), change / Cognitive symptoms (PANSS-cognitive subscale), change / Positive Symptoms (PANSS-positive subscale), change / reduction of the negative symptoms (on the SANS scale) / reduction of the positive symptoms (on the PANSS-positive subscale): once a day by mouth for 6 weeks; for Negative Symptoms (SANS), change: D-serine 30 mg/kg/day, D-alanine 60-100 mg/kg/day, N-methylglycine 30 mg/kg/day, added to stable antipsychotic; for CGI, score after treatment: value after the arrow: after 6 weeks, once a day by mouth; for CGI, baseline score: value before the arrow: baseline of the treatment group
Source text: as §1, §2, §3

AIMS (dyskinesia), baseline score (Schizophrenia Patients [1]) | Barnes Scale (akathesia), baseline score (Schizophrenia Patients [1]) | EPS (Simpson-Angus Scale), baseline score (Schizophrenia Patients [1]) | AIMS (dyskinesia), score after treatment (Schizophrenia Patients [1]) | Barnes Scale (akathesia), score after treatment (Schizophrenia Patients [1]) | EPS (Simpson-Angus Scale), score after treatment (Schizophrenia Patients [1]) | Structure (SMILES) | side effects, UKU scale (Schizophrenia Patients [1]) | significant side effects after treatment of schizophrenia patients (Schizophrenia Patients [1]) | tardive dyskinesia, extrapyramidal and akathesia symptoms (Schizophrenia Patients [1]) | cognition, PANSS-cognitive subscale and Wisconsin Card Sort Test (Schizophrenia Patients [2]) | WCST (Wisconsin Card Sort Test), change (Schizophrenia Patients [2]) | Negative Symptoms (SANS), change (Schizophrenia Patients [2]) [%*] | Cognitive symptoms (PANSS-cognitive subscale), change (Schizophrenia Patients [2]) [%*] | Positive Symptoms (PANSS-positive subscale), change (Schizophrenia Patients [2]) [%*] | reduction of the negative symptoms (on the SANS scale) (Schizophrenia Patients [2]) [%] | reduction of the positive symptoms (on the PANSS-positive subscale) (Schizophrenia Patients [2]) [%] | CGI, score after treatment (Schizophrenia Patients [2]) | CGI, baseline score (Schizophrenia Patients [2])
0.5 | 0.4 | 3.1-->3.1 | 0.1 | 0.6 | 3.1-->3.1 | C[C@@H](N)C(=O)O [D-alanine] | no side effects were noted | no significant side effects were detected | no newly emergent tardive dyskinesia or worsening of extrapyramidal or akathesia symptoms | improved cognition | +0.5* category | −12 | −11 | −11 | 11 | 12 | 2.8 | 3.9
0.3-->0.3 | 0.4 | 1.4 | 0.3-->0.3 | 0.8 | 1.7 | N[C@H](CO)C(=O)O [D-serine] | no side effects were noted | no significant side effects were detected | no newly emergent tardive dyskinesia or worsening of extrapyramidal or akathesia symptoms | improved cognition | +0.9 category | −21 | −12 | −17 | 21 | 17 | 2.6 | 4.8
0.4 | 0.5 | 2.1-->2.1 | 0.3 | 0.6 | 2.1-->2.1 | CNCC(=O)O [N-methylglycine] | no side effects were noted | no significant side effects were detected | no newly emergent tardive dyskinesia or worsening of extrapyramidal or akathesia symptoms | improved cognition | +0.7* category | −20 | −12 | −15 | 20 | 15 | 2.7 | 4.2
